The test system of this assay is IL-1β. Put plainly: In vitro IL-1β inhibition in PMA-differentiated, LPS-primed, ATP-stimulated THP1 monocytes. As to conditions: primed with 500 ng/mL LPS 4 hrs, compound 30 min, 5 mM ATP 1 hr, IL-1b in supernatant, read-out: IC50 (in vitro IL-1β inhibitory activity). The assay is classed as cell-based. Here is the method: THP1 monocytes were differentiated with PMA (100 ng/mL) and incubated at 37° C. for 20 hours in presence of 5% CO2. 2×10^5 differentiated cells were plated per well of 96 well tissue culture plates. The cells were primed using 500 ng/mL Lipopolysaccharide and incubating for 4 hrs under the same condition. The cells were then treated with various concentrations of the compounds for 30 min followed by treatment with 5 mM ATP for 1 hr. The supernatants were collected and analysed by IL-1b (Mabtech Cat #3415-1H-20) or TNF-a (Mabtech; Cat #3510-1H-20) detection kit. The data were analyzed using GraphPad Prism V7.0. Dose Response Curve (DRC) was constructed to determine the IC50 value by fitting percentage […] data to the GraphPad Prism using nonlinear regression analysis.

The mark [1] stands for this setting: Homo sapiens, THP-1, THP1 cells differentiated with PMA 100 ng/mL.

Our source for the IC50 values is US12377070B2, “Substituted sulfoximine derivatives” (CADILA HEALTHCARE LIMITED, priority 2019, dated 2025).

By IC50 is commonly meant the concentration that inhibits the measured activity by half.

Molecules are shown by their SMILES. Structures can show the parent of a compound that is named as a salt. Where two headings read alike, the source gives them in different places.

As to `CC(C)(C)OC(=O)N1CCC[C@@]1(C)/C=C/S(=O)(=NC#N)NC(=O)Nc1c2c(cc3c1CCC3)CCC2` (stereo partly drawn) [Example 3, tert-butyl (2S)-2-((E)-2-(N′-cyano-N-((1,2,3,5,6,7-hexahydro-s-indacen-4-yl)carbamoyl)sulfamidimidoyl)vinyl)-2-methylpyrrolidine-1-carboxylate], under setting [1], the IC50 is 19 µM.
For `C[C@@]1(/C=C/S(=O)(=NC#N)NC(=O)Nc2c3c(cc4c2CCC4)CCC3)CCCN1` (stereo partly drawn) [Example 4, (E)-N′-cyano-N-((1,2,3,5,6,7-hexahydro-s-indacen-4-yl)carbamoyl)-2-((S)-2-methylpyrrolidin-2-yl)ethene-1-sulfonimidamide hydrochloride], the half-maximal inhibitory concentration (IC50) (THP1 cells differentiated with PMA 100 ng/mL, hydrochloride) is 20 µM.
For the compound `CN1CCC[C@@]1(C)/C=C/S(=O)(=NC#N)NC(=O)Nc1c2c(cc3c1CCC3)CCC2` (stereo partly drawn) [Example 7, (E)-N′-cyano-2-((S)-1,2-dimethylpyrrolidin-2-yl)-N-((1,2,3,5,6,7-hexahydro-s-indacen-4-yl)carbamoyl)ethene-1-sulfonimidamide], the half-inhibitory concentration (IC50) under setting [1] was 1.5 µM.
`N#CN=S(=O)(/C=C/[C@H]1CCCN1S(=O)(=O)C1CCCCC1)NC(=O)Nc1c2c(cc3c1CCC3)CCC2` (stereo partly drawn) [Example 8, (E)-N′-cyano-2-((R)-1-(cyclohexylsulfonyl)pyrrolidin-2-yl)-N-((1,2,3,5,6,7-hexahydro-s-indacen-4-yl)carbamoyl)ethene-1-sulfonimidamide]: the IC50 under setting [1] is 12 µM.
As for `N#CN=S(=O)(/C=C/[C@H]1CCCN1S(=O)(=O)c1ccccc1C#N)NC(=O)Nc1c2c(cc3c1CCC3)CCC2` (stereo partly shown) [Example 9], the 50% inhibitory concentration (IC50) under setting [1] was 11 µM.
Take `N#CN=S(=O)(/C=C/[C@H]1CCCN1)NC(=O)Nc1c2c(cc3c1CCC3)CCC2` (stereo partly drawn) [Example 10, (E)-N′-cyano-N-((1,2,3,5,6,7-hexahydro-s-indacen-4-yl)carbamoyl)-2-((R)-pyrrolidin-2-yl)ethene-1-sulfonimidamide hydrochloride]: the IC50 under setting [1] turned out to be 6.4 µM.
Same read-out and setting: as for `CN1CCC[C@@H]1/C=C/S(=O)(=NC#N)NC(=O)Nc1c2c(cc3c1CCC3)CCC2` (stereo partly drawn) [Example 11, (E)-N′-cyano-N-((1,2,3,5,6,7-hexahydro-s-indacen-4-yl)carbamoyl)-2-((R)-1-methylpyrrolidin-2-yl)ethene-1-sulfonimidamide], the figure is 2.3 µM; as for `CC(C)(C)OC(=O)N1CCC[C@]1(C)/C=C/S(=O)(=NC#N)NC(=O)Nc1c2c(cc3c1CCC3)CCC2` (stereo partly drawn) [Example 13, tert-butyl (2R)-2-((E)-2-(N′-cyano-N-((1,2,3,5,6,7-hexahydro-s-indacen-4-yl)carbamoyl)sulfamidimidoyl)vinyl)-2-methylpyrrolidine-1-carboxylate], 4 µM; as for `C[C@]1(/C=C/S(=O)(=NC#N)NC(=O)Nc2c3c(cc4c2CCC4)CCC3)CCCN1` (stereo partly drawn) [Example 14, (E)-N′-cyano-N-((1,2,3,5,6,7-hexahydro-s-indacen-4-yl)carbamoyl)-2-((R)-2-methylpyrrolidin-2-yl)ethene-1-sulfonimidamide hydrochloride], 9 µM.
`CN1CCC[C@]1(C)/C=C/S(=O)(=NC#N)NC(=O)Nc1c2c(cc3c1CCC3)CCC2` (stereo partly drawn) [Example 15, (E)-N′-cyano-2-((R)-1,2-dimethylpyrrolidin-2-yl)-N-((1,2,3,5,6,7-hexahydro-s-indacen-4-yl)carbamoyl)ethene-1-sulfonimidamide]: the IC50 under setting [1] was 2.1 µM.
On to `CC(C)N1CCC[C@@]1(C)/C=C/S(=O)(=NC#N)NC(=O)Nc1c2c(cc3c1CCC3)CCC2` (stereo partly drawn) [Example 17, (E)-N′-cyano-N-((1,2,3,5,6,7-hexahydro-s-indacen-4-yl)carbamoyl)-2-((S)-1-isopropyl-2-methylpyrrolidin-2-yl)ethene-1-sulfonimidamide], for which, under setting [1], the concentration for half-maximal inhibition (IC50) was found to be 11 µM.
In the case of `C[C@@]1(/C=C/S(=O)(=NC#N)NC(=O)Nc2c3c(cc4c2CCC4)CCC3)CCCN1C1CCCC1` (stereo partly drawn) [Example 18, (E)-N′-cyano-2-((S)-1-cyclopentyl-2-methylpyrrolidin-2-yl)-N-((1,2,3,5,6,7-hexahydro-s-indacen-4-yl)carbamoyl)ethene-1-sulfonimidamide], under setting [1], the concentration for half-maximal inhibition (IC50) turned out to be 18 µM.
Turning to `C[C@@]1(/C=C/S(=O)(=NC#N)NC(=O)Nc2c3c(cc4c2CCC4)CCC3)CCCN1C1CCC1` (stereo partly drawn) [Example 19, (E)-N′-cyano-2-((S)-1-cyclobutyl-2-methylpyrrolidin-2-yl)-N-((1,2,3,5,6,7-hexahydro-s-indacen-4-yl)carbamoyl)ethene-1-sulfonimidamide], the IC50 under setting [1] was determined as 4.6 µM.
For `C[C@@]1(/C=C/S(=O)(=NC#N)NC(=O)Nc2c3c(cc4c2CCC4)CCC3)CCCN1` (stereo partly drawn) [Example 20, (E)-N′-cyano-N-((1,2,3,5,6,7-hexahydro-s-indacen-4-yl)carbamoyl)-2-((S)-2-methylpyrrolidin-2-yl)ethene-1-sulfonimidamide], where the note is “THP1 cells differentiated with PMA 100 ng/mL”, the half-inhibitory concentration (IC50) was 3.2 µM.
With `C[C@@]1(/C=C/S(=O)(=NC#N)NC(=O)Nc2c3c(cc4c2CCC4)CCC3)CCCN1CC1CC1` (stereo partly drawn) [Example 21, (E)-N′-cyano-2-((S)-1-(cyclopropylmethyl)-2-methylpyrrolidin-2-yl)-N-((1,2,3,5,6,7-hexahydro-s-indacen-4-yl)carbamoyl)ethene-1-sulfonimidamide], the IC50 under setting [1] is 4.6 µM.
`C[C@@]1(/C=C/S(=O)(=NC#N)NC(=O)Nc2c3c(cc4c2CCC4)CCC3)CCCN1` (stereo partly drawn) [Example 22, (E)-N′-cyano-N-((1,2,3,5,6,7-hexahydro-s-indacen-4-yl)carbamoyl)-2-((S)-2-methylpyrrolidin-2-yl)ethene-1-sulfonimidamide 2,2,2-trifluoroacetate]: under “THP1 cells differentiated with PMA 100 ng/mL, 2,2,2-trifluoroacetate”, the half-inhibitory concentration (IC50) came to 8.9 µM.
As for `CC(C)CN1CCC[C@@]1(C)/C=C/S(=O)(=NC#N)NC(=O)Nc1c2c(cc3c1CCC3)CCC2` (stereo partly drawn) [Example 24, (E)-N′-cyano-N-((1,2,3,5,6,7-hexahydro-s-indacen-4-yl)carbamoyl)-2-((S)-1-isobutyl-2-methylpyrrolidin-2-yl)ethene-1-sulfonimidamide], under setting [1], the IC50 is 15 µM.
Same read-out and setting: as for `CC(=O)N1CCC[C@@]1(C)/C=C/S(=O)(=NC#N)NC(=O)Nc1c2c(cc3c1CCC3)CCC2` (stereo partly drawn) [Example 25, (E)-2-((S)-1-acetyl-2-methylpyrrolidin-2-yl)-N′-cyano-N-((1,2,3,5,6,7-hexahydro-s-indacen-4-yl)carbamoyl)ethene-1-sulfonimidamide], the figure is 19 µM.
Turning to `CCN1CCC[C@@]1(C)/C=C/S(=O)(=NC#N)NC(=O)Nc1c2c(cc3c1CCC3)CCC2` (stereo partly drawn) [Example 26, (E)-N′-cyano-2-((S)-1-ethyl-2-methylpyrrolidin-2-yl)-N-((1,2,3,5,6,7-hexahydro-s-indacen-4-yl)carbamoyl)ethene-1-sulfonimidamide], the 50% inhibitory concentration (IC50) under setting [1] came to 19 µM.
Regarding `C[C@@]1(/C=C/S(=O)(=NC#N)NC(=O)Nc2c3c(cc4c2CCC4)CCC3)CCCN1Cc1nccs1` (stereo partly drawn) [Example 29, (E)-N′-cyano-N-((1,2,3,5,6,7-hexahydro-s-indacen-4-yl)carbamoyl)-2-((S)-2-methyl-1-(thiazol-2-ylmethyl)pyrrolidin-2-yl)ethene-1-sulfonimidamide], the IC50 under setting [1] was found to be 15 µM.
Turning to `C[C@@]1(/C=C/S(=O)(=NC#N)NC(=O)Nc2c3c(cc4c2CCC4)CCC3)CCCN1C(N)=O` (stereo partly drawn) [Example 31, (2S)-2-((E)-2-(N′-cyano-N-((1,2,3,5,6,7-hexahydro-s-indacen-4-yl)carbamoyl)sulfamidimidoyl)vinyl)-2-methylpyrrolidine-1-carboxamide], the IC50 under setting [1] is 9.2 µM.
On to `CC(C)(C)OC(=O)N1CCCC1/C=C/S(=O)(=NC#N)NC(=O)Nc1c2c(cc3c1CCC3)CCC2` [Example 34, tert-butyl (2R)-2-((E)-2-(N′-cyano-N-((1,2,3,5,6,7-hexahydro-s-indacen-4-yl)carbamoyl)sulfamidimidoyl)vinyl)pyrrolidine-1-carboxylate], for which the half-maximal inhibitory concentration (IC50) under setting [1] came out at 19 µM.
